Reference: PubChem BioAssay AID2060512 (Molecular Pharmacology Branch, DTP, NCI, 2025)

Test system: 186277-243-T-J2-PDC complex spheroid viability
Assay: Anticancer human tumor 186277-243-T-J2-PDC patient-derived colon adenocarcinoma cell line growth inhibition [GQUAD]
Details: for IC50: curve of first compound; for viability, T/C: stronger effect = lower value
Source text: DNA G-quadruplex Stabilizer Agents in Combinations in Complex Spheroids
A high-throughput screen of multi-cell type tumor spheroids was designed to identify active combinations of DNA G-quadruplex stabilizer agents and targeted small molecules. Complex spheroids include a stromal component modeled by human endothelial cells (HUVEC) and fibroblasts modeled by human mesenchymal stem cells (MSCs). The concentration ranges selected for each drug and investigational agent were based upon clinically achievable concentrations if the clinical Cmax of the agent was known.
Compounds. The drugs and investigational agents: pidnarulex (CX-5461; NSC782164), APTO-253 (NSC789042), BRACO-19 (NSC847499), peposertib (NSC802822), ceralasertib (NSC780249), elimusertib (NSC800525), camonsertib (NSC841442), AZD-1390 (NSC803789), olaparib (NSC753686), talazoparib (NSC767125), ART-558 (NSC835418), sotorasib (NSC818433), MRTX-1133 (NSC836407), SN-38 (NSC673596), topotecan (NSC609699), etoposide (NSC141540), doxorubicin (NSC123127), gemcitabine (NSC613327), 5-fluorouracil (NSC19893), paclitaxel (NSC125973), vemurafenib (NSC761431), panobinostat (NSC761190), R-306465 (JNJ-16241199; NSC773264), adavosertib (NSC754352), TP-3654 (NSC805149), carboplatin (NSC241240), KSQ-4279 (NSC840948), and staurosporine (NSC755774) were obtained from the National Cancer Institute (NCI) Developmental Therapeutics Program Chemical Repository (34). The FDA-approved anticancer drug set is available from the NCI Developmental Therapeutics Program. […] The stock solutions were prepared in dimethyl sulfoxide (DMSO, Sigma-Aldrich, St. Louis, MO, cat. D2650) at 800-fold the tested concentration and stored at -70 degrees C prior to their use. All drugs and investigational agents were tested over a range starting from a high concentration at or near the clinical Cmax and decreasing in half-log increments. If the clinical Cmax for an agent had not been determined, the highest concentration tested was 10 microM.
2.3 Cell Culture. All cells were maintained in an incubator at 37 degrees C and 5% CO2 with 95% humidity. The PDC lines were cultured according to standard operating procedures established by the NCI PDMR. All PDCs were thawed and cultured in Matrigel-coated flasks prepared with a working solution of 1X Ham's F-12 nutrient mix, without supplementation (Invitrogen, cat. 11765054), 100 U/mL penicillin-streptomycin (Invitrogen, cat. 15140122), and 2.5% Matrigel (Corning Inc., cat. 354248) for the first three passages. The 857933-349-R-J2-PDC line was cultured in 6C/Colon 1B media, which includes advanced DMEM/F-12 (Thermo Fisher Scientific, cat. 12634028), 10 mM HEPES (Thermo Fisher Scientific, cat. 15630080), 1X GlutaMAX supplement (Thermo Fisher Scientific, cat. 35050061), 0.1 mg/mL primocin (InvivoGen, cat. ant-pm-2), 10% defined fetal bovine serum, heat inactivated (HyClone Laboratories Inc., cat. SH30070.03HI), 50% L-WRN conditioned media (ATCC, cat. CRL-3276), 1.25 mM N-Acetyl-L-cysteine (Sigma-Aldrich, cat. A9165), 10 mM nicotinamide (Sigma-Aldrich, cat. N0636), 1X B-27 supplement (Thermo Fisher Scientific, cat. 17504044), 1X N-2 supplement (Thermo Fisher Scientific, cat. 17502048), 10 microM Y-27632 dihydrochloride (Tocris Bioscience, cat. 1254), and 50 ng/mL human EGF recombinant protein (Thermo Fisher Scientific, cat. PHG0311). The 485176-168-R4-J1-PDC line was cultured in Panc media, which includes all 6C/Colon 1B media components plus 100 ng/mL human FGF-10 (Thermo Fisher Scientific, cat. 100-26), 500 nM SB-431542 (Selleckchem, cat. S1067), and gastrin (Tocris, cat. 3006).
[…]

[1] = second compound 0.0316 µM, first compound 0.0316 µM
[2] = second compound 0.0316 µM, first compound 0.1 µM
[3] = second compound 0.0316 µM, first compound 0.316 µM
[4] = second compound 0.0316 µM, first compound 1 µM
[5] = second compound 0.0316 µM, first compound 3.16 µM
[6] = second compound 0.0316 µM, first compound 10 µM
[7] = second compound 0.1 µM, first compound 0.0316 µM
[8] = second compound 0.1 µM, first compound 0.1 µM
[9] = second compound 0.1 µM, first compound 0.316 µM
[10] = second compound 0.1 µM, first compound 1 µM
[11] = second compound 0.1 µM, first compound 3.16 µM
[12] = second compound 0.1 µM, first compound 10 µM
[13] = second compound 0.316 µM, first compound 0.0316 µM
[14] = second compound 0.316 µM, first compound 0.1 µM
[15] = second compound 0.316 µM, first compound 0.316 µM
[16] = second compound 0.316 µM, first compound 1 µM
[17] = second compound 0.316 µM, first compound 3.16 µM
[18] = second compound 0.316 µM, first compound 10 µM
[19] = second compound 1 µM, first compound 0.0316 µM
[20] = second compound 1 µM, first compound 0.1 µM
[21] = second compound 1 µM, first compound 0.316 µM
[22] = second compound 1 µM, first compound 1 µM
[23] = second compound 1 µM, first compound 3.16 µM
[24] = second compound 1 µM, first compound 10 µM
[25] = second compound 3.16 µM, first compound 0.0316 µM
[26] = second compound 3.16 µM, first compound 0.1 µM
[27] = second compound 3.16 µM, first compound 0.316 µM
[28] = second compound 3.16 µM, first compound 1 µM
[29] = second compound 3.16 µM, first compound 3.16 µM
[30] = second compound 3.16 µM, first compound 10 µM
[31] = second compound 10 µM, first compound 0.0316 µM
[32] = second compound 10 µM, first compound 0.1 µM
[33] = second compound 10 µM, first compound 0.316 µM
[34] = second compound 10 µM, first compound 1 µM
[35] = second compound 10 µM, first compound 3.16 µM
[36] = second compound 10 µM, first compound 10 µM
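Also: spheroids exposed to drugs for 7 days.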
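For viability, T/C in this document: 100% = DMSO vehicle control viability.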

COc1ncnc(C2CC2)c1-c1ncc2cnn(Cc3ccc(-c4nc(C(F)(F)F)cn4C(C)C)cc3)c2n1 + Cc1[nH]c2ccc(F)cc2c1-c1nc2c3cccnc3c3ncccc3c2[nH]1
IC50 (second compound 0.0316 µM): > 10000 nM | IC50 (second compound 0.1 µM): > 10000 nM | IC50 (second compound 0.316 µM): > 10000 nM | IC50 (second compound 1 µM): > 10000 nM | IC50 (second compound 3.16 µM): > 10000 nM | IC50 (second compound 10 µM): > 10000 nM | viability, T/C [1]: 116% | viability, T/C [2]: 91.6% | viability, T/C [3]: 95.1% | viability, T/C [4]: 84.4% | viability, T/C [5]: 111% | viability, T/C [6]: 97.4% | viability, T/C [7]: 87.5% | viability, T/C [8]: 98.7% | viability, T/C [9]: 99.8% | viability, T/C [10]: 95.2% | viability, T/C [11]: 112% | viability, T/C [12]: 86.2% | viability, T/C [13]: 104% | viability, T/C [14]: 95.7% | viability, T/C [15]: 94.2% | viability, T/C [16]: 111% | viability, T/C [17]: 108% | viability, T/C [18]: 96% | viability, T/C [19]: 92.5% | viability, T/C [20]: 105% | viability, T/C [21]: 107% | viability, T/C [22]: 93.9% | viability, T/C [23]: 116% | viability, T/C [24]: 104% | viability, T/C [25]: 103% | viability, T/C [26]: 115% | viability, T/C [27]: 97.3% | viability, T/C [28]: 102% | viability, T/C [29]: 99.9% | viability, T/C [30]: 89.9% | viability, T/C [31]: 105% | viability, T/C [32]: 101% | viability, T/C [33]: 99.1% | viability, T/C [34]: 94.4% | viability, T/C [35]: 113% | viability, T/C [36]: 97%

CC1COCCN1c1cc(C2(S(C)(=N)=O)CC2)nc(-c2ccnc3[nH]ccc23)n1 (centres undefined) + Cc1[nH]c2ccc(F)cc2c1-c1nc2c3cccnc3c3ncccc3c2[nH]1
IC50 (second compound 0.0316 µM): 791 nM | IC50 (second compound 0.1 µM): 839 nM | IC50 (second compound 0.316 µM): 1210 nM | IC50 (second compound 1 µM): 1600 nM | IC50 (second compound 3.16 µM): 1140 nM | IC50 (second compound 10 µM): 1210 nM | viability, T/C [1]: 109% | viability, T/C [2]: 104% | viability, T/C [3]: 105% | viability, T/C [4]: 35.6% | viability, T/C [5]: 11.1% | viability, T/C [6]: 10.7% | viability, T/C [7]: 109% | viability, T/C [8]: 88.3% | viability, T/C [9]: 87.7% | viability, T/C [10]: 42.6% | viability, T/C [11]: 13.2% | viability, T/C [12]: 4.44% | viability, T/C [13]: 87.7% | viability, T/C [14]: 89.4% | viability, T/C [15]: 117% | viability, T/C [16]: 58.1% | viability, T/C [17]: 10.9% | viability, T/C [18]: 8.17% | viability, T/C [19]: 91.1% | viability, T/C [20]: 85.8% | viability, T/C [21]: 101% | viability, T/C [22]: 74.2% | viability, T/C [23]: 15% | viability, T/C [24]: 8.18% | viability, T/C [25]: 102% | viability, T/C [26]: 92.4% | viability, T/C [27]: 97.5% | viability, T/C [28]: 53.5% | viability, T/C [29]: 16.3% | viability, T/C [30]: 7.22% | viability, T/C [31]: 90.1% | viability, T/C [32]: 98.2% | viability, T/C [33]: 96.9% | viability, T/C [34]: 57.2% | viability, T/C [35]: 12.8% | viability, T/C [36]: 6.82%
